Reference: patent publication US20230265151A1, “GIP/GLP1 CO-AGONIST COMPOUNDS” (priority 2020, published 2023)
Where two headings read alike, the source gives them in different places. *1 amine or outer side, *2 acyl side, *3 side chain or, on linkers, in order; H or OH if unused. Where a SMILES comes first, the peptide text is derived from it. Side-chain parts run from the residue outwards. [ ]: non-standard residue; d: D form. The star is where a group is joined. Decanoyl(10-(4-HOOC-PhO)) = O=C(O)c1ccc(OCCCCCCCCCC(=O)*)cc1; αMePhe(2-F) = C[C@](N)(Cc1ccccc1F)C(=O)O; γGlu = O=C(O)[C@H](CCC(=O)[*:2])N[*:1]; αMeY = C[C@](N)(Cc1ccc(O)cc1)C(=O)O; 4Pal = N[C@@H](Cc1ccncc1)C(=O)O; αMeL = CC(C)C[C@](C)(N)C(=O)O; Orn = NCCC[C@H](N)C(=O)O; AEEA = NCCOCCOCC(=O)O; Aib = CC(C)(N)C(=O)O

Columns and labels:
Type in all cases: cell-based
hGCGR = biological target: T1, hGCGR (Homo sapiens, UniProt P47871); test: Functional cAMP formation (HTRF) in HEK-293 clonal cells expressing hGCGR, 0.1% bovine casein, without or with 1.0% human serum albumin; details: cAMP, 37° C.
T1 construct: expressed in transfected cells
Outline: (§1)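 Readings of the HTRF 665/620 nm ratio, which falls as cAMP rises, were converted to nM cAMP using a standard curve after 30 min peptide exposure at 37° C.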

hGLP-1R = hGLP-1R (Homo sapiens, UniProt P43220); test: Functional cAMP formation (HTRF) in HEK-293 clonal cells expressing hGLP-1R, 0.1% bovine casein, without or with 1.0% human serum albumin; design: expressed in transfected cells; details: for Emax: percent of maximal response to GLP-1(7-36)NH2; for EC50: cAMP, 0.1% bovine casein (no human serum albumin), geometric mean
Outline: as §1

hGIPR = biological target: T2, hGIPR (Homo sapiens, UniProt P48546); test: Functional cAMP formation (HTRF) in HEK-293 clonal cells expressing hGIPR, 0.1% bovine casein, without or with 1.0% human serum albumin; details: for Emax: percent of maximal response to GIP(1-42)NH2; for EC50: cAMP, 0.1% bovine casein (no human serum albumin), geometric mean
T2 construct: expressed in transfected cells
T2 sequence (P48546 22-466): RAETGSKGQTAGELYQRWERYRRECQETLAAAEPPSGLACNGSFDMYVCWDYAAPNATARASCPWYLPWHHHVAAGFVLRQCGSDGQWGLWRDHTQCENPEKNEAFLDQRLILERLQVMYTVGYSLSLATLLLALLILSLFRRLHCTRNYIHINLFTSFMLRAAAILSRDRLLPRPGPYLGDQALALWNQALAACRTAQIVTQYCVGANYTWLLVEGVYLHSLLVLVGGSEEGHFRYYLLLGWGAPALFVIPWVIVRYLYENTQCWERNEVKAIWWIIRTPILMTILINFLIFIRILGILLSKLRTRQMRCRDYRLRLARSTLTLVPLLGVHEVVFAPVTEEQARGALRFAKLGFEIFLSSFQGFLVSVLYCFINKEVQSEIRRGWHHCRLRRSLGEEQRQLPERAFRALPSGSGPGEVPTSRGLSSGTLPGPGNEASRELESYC
Outline: as §1

[1] = hGCGR EC50, nM (SEM, n), 0.1% bovine casein (no human serum albumin), geometric mean
[2] = hGCGR EC50, nM (SEM, n), 0.1% bovine casein and 1.0% human serum albumin, geometric mean (SEM, n)
[3] = hGLP-1R EC50, nM (SEM, n), 37° C.
[4] = HEK293, read-out: hGIPR Emax, % ± SEM, cAMP, 37° C., 0.1% bovine casein and 1.0% human serum albumin
[5] = hGIPR EC50, nM (SEM, n), 37° C.

hGLP-1R, sequence (P43220 24-463): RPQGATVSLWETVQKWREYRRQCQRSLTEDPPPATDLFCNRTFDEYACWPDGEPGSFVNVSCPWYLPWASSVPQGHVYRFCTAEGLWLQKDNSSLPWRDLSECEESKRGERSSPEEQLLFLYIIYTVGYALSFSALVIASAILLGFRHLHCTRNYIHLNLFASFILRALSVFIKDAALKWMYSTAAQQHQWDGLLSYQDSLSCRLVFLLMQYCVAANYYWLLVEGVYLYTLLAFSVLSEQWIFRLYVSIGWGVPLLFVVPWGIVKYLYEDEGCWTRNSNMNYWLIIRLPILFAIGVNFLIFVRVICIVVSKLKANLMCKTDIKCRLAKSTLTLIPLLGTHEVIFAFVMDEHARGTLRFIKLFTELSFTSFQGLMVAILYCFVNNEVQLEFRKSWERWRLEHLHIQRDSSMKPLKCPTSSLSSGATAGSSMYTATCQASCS
T1 sequence (P47871 26-477): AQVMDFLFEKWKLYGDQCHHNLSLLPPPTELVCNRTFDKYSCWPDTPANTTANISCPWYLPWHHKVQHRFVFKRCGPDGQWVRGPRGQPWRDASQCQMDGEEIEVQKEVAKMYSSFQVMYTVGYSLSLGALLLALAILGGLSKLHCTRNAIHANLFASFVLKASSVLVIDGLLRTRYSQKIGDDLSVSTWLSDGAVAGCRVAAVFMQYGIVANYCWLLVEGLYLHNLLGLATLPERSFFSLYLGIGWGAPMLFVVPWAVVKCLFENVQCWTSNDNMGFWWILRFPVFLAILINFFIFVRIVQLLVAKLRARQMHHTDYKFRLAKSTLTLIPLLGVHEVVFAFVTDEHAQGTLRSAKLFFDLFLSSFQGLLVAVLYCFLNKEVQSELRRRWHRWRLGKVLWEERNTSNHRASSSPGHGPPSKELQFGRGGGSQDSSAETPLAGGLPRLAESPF

SMILES | EC50 (hGCGR; 0.1% bovine casein (no human serum albumin), geometric mean, read-out: hGCGR EC50, nM (SEM, n)) [nM] | EC50 (hGCGR; 0.1% bovine casein and 1.0% human serum albumin, geometric mean (SEM, n), read-out: hGCGR EC50, nM (SEM, n)) [nM] | Emax (hGLP-1R; HEK293, cAMP, 37° C., 0.1% bovine casein, arithmetic mean, read-out: hGLP-1R Emax, % ± SEM) [%] | EC50 (hGLP-1R; 37° C., read-out: hGLP-1R EC50, nM (SEM, n)) [nM] | Emax (hGIPR; HEK293, cAMP, 37° C., 0.1% bovine casein and 1.0% human serum albumin, read-out: hGIPR Emax, % ± SEM) [%] | EC50 (hGIPR; 37° C., read-out: hGIPR EC50, nM (SEM, n)) [nM] | EC50 (hGCGR; [1]) [nM] | EC50 (hGCGR; [2]) [nM] | Emax (hGLP-1R; HEK293, read-out: hGLP-1R Emax, % ± SEM, cAMP, 37° C., 0.1% bovine casein and 1.0% human serum albumin) [%] | EC50 (hGLP-1R; [3]) [nM] | Emax (hGIPR; [4]) [%] | Emax (hGIPR; HEK293, read-out: hGIPR Emax, % ± SEM, cAMP, 37° C., 0.1% bovine casein, arithmetic mean) [%] | EC50 (hGIPR; [5]) [nM] | Emax (hGLP-1R; HEK293, read-out: hGLP-1R Emax, % ± SEM, cAMP, 37° C., 0.1% bovine casein, arithmetic mean) [%]
CC[C@H](C)[C@H](NC(=O)[C@H](CC(C)C)NC(=O)[C@](C)(Cc1ccc(O)cc1)NC(=O)[C@@H](CCC(=O)O)NC(=O)[C@@H](NC(=O)[C@H](Cc1ccccc1)NC(=O)[C@H](CCC(=O)O)NC(=O)C(C)(C)NC(=O)[C@H](CCC(N)=O)NC(=O)[C@H](C)NC(=O)[C@H](CCCCNC(=O)COCCOCCNC(=O)COCCOCCNC(=O)CC[C@H](NC(=O)CCCCCCCCCCCCC(=O)O)C(=O)O)NC(=O)[C@H](CCCN)NC(=O)[C@H](CC(=O)O)NC(=O)[C@H](CC(C)C)NC(=O)[C@](C)(CC(C)C)NC(=O)[C@@H](NC(=O)C(C)(C)NC(=O)[C@@H](NC(=O)[C@H](CC(=O)O)NC(=O)[C@H](CO)NC(=O)[C@@H](NC(=O)[C@](C)(Cc1ccccc1F)NC(=O)[C@@H](NC(=O)CNC(=O)[C@H](CCC(=O)O)NC(=O)C(C)(C)NC(=O)[C@@H](N)Cc1ccc(O)cc1)[C@@H](C)O)[C@@H](C)O)C(C)C)[C@@H](C)CC)[C@@H](C)CC)C(=O)N[C@@H](CCCCNC(=O)COCCOCCNC(=O)COCCOCCNC(=O)CC[C@H](NC(=O)CCCCCCCCCCCCC(=O)O)C(=O)O)C(=O)NCC(=O)NCC(=O)N1CCC[C@H]1C(=O)N[C@@H](CO)C(=O)N[C@@H](CO)C(=O)NCC(=O)N[C@@H](C)C(=O)N1CCC[C@H]1C(=O)N1CCC[C@H]1C(=O)N1CCC[C@H]1C(=O)N[C@@H](CO)C(N)=O [Example 325] | > 9950 | > 9950 | 97.8 | 0.225 | 94.7 | 0.0485 | – | – | – | – | – | – | – | –
CC[C@H](C)[C@H](NC(=O)[C@H](CCCN)NC(=O)[C@H](CC(=O)O)NC(=O)[C@H](CC(C)C)NC(=O)[C@](C)(CC(C)C)NC(=O)[C@@H](NC(=O)C(C)(C)NC(=O)[C@H](Cc1ccncc1)NC(=O)[C@H](CC(=O)O)NC(=O)[C@H](CO)NC(=O)[C@@H](NC(=O)[C@](C)(Cc1ccccc1F)NC(=O)[C@@H](NC(=O)CNC(=O)[C@H](CCC(=O)O)NC(=O)C(C)(C)NC(=O)[C@@H](N)Cc1ccc(O)cc1)[C@@H](C)O)[C@@H](C)O)[C@@H](C)CC)C(=O)N[C@@H](C)C(=O)N[C@@H](CCC(N)=O)C(=O)NC(C)(C)C(=O)N[C@@H](CCCN)C(=O)N[C@@H](Cc1ccccc1)C(=O)N[C@H](C(=O)N[C@@H](CCCCNC(=O)COCCOCCNC(=O)COCCOCCNC(=O)CC[C@H](NC(=O)CCCCCCCCCOc1ccc(C(=O)O)cc1)C(=O)O)C(=O)N[C@@](C)(Cc1ccc(O)cc1)C(=O)N[C@@H](CC(C)C)C(=O)N[C@H](C(=O)N[C@@H](CCCCNC(=O)COCCOCCNC(=O)COCCOCCNC(=O)CC[C@H](NC(=O)CCCCCCCCCOc1ccc(C(=O)O)cc1)C(=O)O)C(=O)NCC(=O)NCC(=O)N1CCC[C@H]1C(=O)N[C@@H](CO)C(=O)N[C@@H](CO)C(=O)NCC(=O)N[C@@H](C)C(=O)N1CCC[C@H]1C(=O)N1CCC[C@H]1C(=O)N1CCC[C@H]1C(=O)N[C@@H](CO)C(N)=O)[C@@H](C)CC)[C@@H](C)CC [Example 354] (H-Y[Aib]EGT[αMePhe(2-F)]TSD[4Pal][Aib]I[αMeL]LD[Orn]IAQ[Aib][Orn]FIK([AEEA-AEEA-γGlu-Decanoyl(10-(4-HOOC-PhO))])[αMeY]LIK([AEEA-AEEA-γGlu-Decanoyl(10-(4-HOOC-PhO))])GGPSSGAPPPS-NH2) | – | – | – | – | – | – | > 9950 | > 9950 | 95.9 | 0.505 | 67.5 | 95.4 | 0.0249 | –
CC[C@H](C)[C@H](NC(=O)[C@H](CCCN)NC(=O)[C@H](CC(=O)O)NC(=O)[C@H](CC(C)C)NC(=O)[C@](C)(CC(C)C)NC(=O)[C@@H](NC(=O)C(C)(C)NC(=O)[C@@H](NC(=O)[C@H](CC(=O)O)NC(=O)[C@H](CO)NC(=O)[C@@H](NC(=O)[C@](C)(Cc1ccccc1F)NC(=O)[C@@H](NC(=O)CNC(=O)[C@H](CCC(=O)O)NC(=O)C(C)(C)NC(=O)[C@@H](N)Cc1ccc(O)cc1)[C@@H](C)O)[C@@H](C)O)C(C)C)[C@@H](C)CC)C(=O)N[C@@H](C)C(=O)N[C@@H](CCC(N)=O)C(=O)NC(C)(C)C(=O)N[C@@H](CCC(=O)O)C(=O)N[C@@H](Cc1ccccc1)C(=O)N[C@H](C(=O)N[C@@H](CCCCNC(=O)COCCOCCNC(=O)CC[C@H](NC(=O)CCCCCCCCCOc1ccc(C(=O)O)cc1)C(=O)O)C(=O)N[C@@](C)(Cc1ccc(O)cc1)C(=O)N[C@@H](CC(C)C)C(=O)N[C@H](C(=O)N[C@@H](CCCCNC(=O)COCCOCCNC(=O)CC[C@H](NC(=O)CCCCCCCCCOc1ccc(C(=O)O)cc1)C(=O)O)C(=O)NCC(=O)NCC(=O)N1CCC[C@H]1C(=O)N[C@@H](CO)C(=O)N[C@@H](CO)C(=O)NCC(=O)N[C@@H](C)C(=O)N1CCC[C@H]1C(=O)N1CCC[C@H]1C(=O)N1CCC[C@H]1C(=O)N[C@@H](CO)C(N)=O)[C@@H](C)CC)[C@@H](C)CC [Example 381] | – | – | – | – | – | – | > 9950 | > 9950 | – | 1.1 | 90.3 | – | 0.0784 | 105
